Source: US12404285B2, “KRAS G12D proteolysis targeting chimeras” (PAQ Therapeutics Inc., priority 2022, dated 2025)

Biological target: T1, KRAS (G12D)-HiBit in AsPc-1-KRAS (G12D)-HiBit-KI cell (Homo sapiens, UniProt P01116, G12D)
T1 construct: host or cells: AsPc-1-KRAS (G12D)-HiBit-KI cells (knock-in line)
Experiment: G12D HiBit assay
Type: cell-based
Settings: 24 hours compound treatment, absolute DC50, read-out: Average PHA DC50
Protocol: Day 1. Prepared the culture medium for AsPc-1-KRAS (G12D)-HiBit-KI cell (Pharmaron) using RPMI 1640 medium (Gibco, 11875093) with 10% FBS (Gibco, 10099141C) and 1% Penicillin-Streptomycin Liquid (Solarbio, P1400). Cultivated cells in T-75 flasks in a cell culture incubator (Thermo, Model: 371) at 37° C., 5% CO2. Allowed cells to reach approximately 80% confluence before splitting. Rinsed cultivated cells in T-75 flasks with 5 mL PBS (Solarbio, P1020-500). Aspirated off PBS, added 1.5 mL trypsin (Invitrogen, #25300), and incubated at 37° C. for approximately 5 minutes or until the cells detached. Inactivated trypsin by adding excessive serum containing medium. Harvested the cells from flask into cell culture medium and counted the cell number. Seeded AsPc-1-KRAS (G12D)-HiBit-KI cell into 384-well plate (Corning, 3570) (cell density: 5×10^3 cells/well in 50 μL medium) in RPMI 1640 medium and incubated overnight at 37° C. and 5% CO2.
Day 2. Test compounds were dissolved at 0.3 mM in DMSO (Solarbio, D8371) as stock solution. Transferred 45 μL of stock solution to a 384-well plate (Labcyte, 001-14555). Performed 3-fold, 10-points dilution via transferring 15 μL compound into 30 μL DMSO by using TECAN liquid handler (TECAN, Freedom EVO200). The compound plates were spin at room temperature at 1,000 RPM for 1 minute (Eppendorf, 5810R). Transferred 50 nL of diluted compounds from compound source plate into the cell plate by Echo (Labcyte, 550) to achieve final concentrations of 300 nM, 100 nM, 33.3 nM, 11.1 nM, 3.7 nM, 1.23 nM, 0.41 nM, 0.14 nM, 0.046 nM and 0.015 nM, then mixed the cell plate on a plate shaker (Yoning, WZ-4) for 15 seconds at 900 rpm. After compound treatment for 24 hours, removed the plate from incubators and equilibrated at room temperature for 15 minutes. Prepared the HiBit reagent (Promega, N3040) by mixing 10 mL of Nano-Glo®-HiBiT Lytic Buffer with 200 μL of Nano-Glo®-HiBiT Lytic Substrate and 100 μL of LgBiT Protein. Added 20 μL of HiBit reagent into each well of the cell plate and spun the plates at room temperature at 1,000 RPM for 1 minute. Then shook the plates at 600 RPM at room temperature for 20 minutes using a plate shaker (Yoning, WZ-4), and read the luminescence by EnVision (PerkinElmer, 2105-0020).
The inhibition activity was calculated using the following formula: HiBit-G12D level (%)=100%×[Luminescence(Sample)/Mean of Luminescence (HC)] where HC (high control) is obtained from cells treated with 0.1% DMSO only.
Absolute DC50 was calculated by fitting the curve using GraphPad Prism v8.0.2 (analyis 263): Y=Bottom+(100−Bottom)/(1+10^(Log AbsoluteIC50−X)*HillSlope+log((100−Bottom)/(50−Bottom)−1)))
The data are reported in Table 3, wherein “+++”=DC50 less than 100 nM, “++”=DC50 greater than or equal to 100 nM and less than 300 nM; “+”=DC50 greater than or equal to 300 nM.

T1 sequence (P01116 1-188 isoform P01116-2 G12D): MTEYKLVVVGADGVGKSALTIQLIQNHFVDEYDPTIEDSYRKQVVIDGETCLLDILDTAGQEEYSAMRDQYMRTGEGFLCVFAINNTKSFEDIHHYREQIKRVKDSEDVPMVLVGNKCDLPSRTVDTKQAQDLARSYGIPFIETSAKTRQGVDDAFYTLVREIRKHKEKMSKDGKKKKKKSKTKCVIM

Structure (SMILES)	DC50
C#Cc1c(F)ccc2cccc(-c3ncc4c(N5CC6CCC(C5)N6)nc(OC[C@@]56CCCN5[C@H](COC(=O)N5CCC7(CC5)CN(CC#Cc5cccc8c5n(C)c(=O)n8C5CCC(=O)NC5=O)CCO7)CC6)nc4c3F)c12 (some centres unmarked) [Compound 46]	≥ 300 nM
C#Cc1c(F)ccc2cccc(-c3ncc4c(N5CC6CCC(C5)N6)nc(OC[C@@]56CCCN5[C@H](COC(=O)N5CC(OC7CCN(Cc8cccc9c8n(C)c(=O)n9C8CCC(=O)NC8=O)CC7)C5)CC6)nc4c3F)c12 (stereo partly drawn) [Compound 83, [(3S,8S)-8-[[4-(3,8-Diazabicyclo[3.2.1]octan-3-yl)-7-(8-ethynyl-7-fluoro-1-naphthyl)-8-fluoro-pyrido[4,3-d]pyrimidin-2-yl]oxymethyl]-1,2,3,5,6,7-hexahydropyrrolizin-3-yl]methyl3-[[1-[[1-(2,6-dioxo-3-piperidyl)-3-methyl2-oxo-benzimidazol-4-yl]methyl]-4-piperidyl]oxy]azetidine-1-carboxylate]	< 100 nM
C#Cc1c(F)ccc2cccc(-c3ncc4c(N5CC6CCC(C5)N6)nc(OC[C@@]56CCCN5[C@H](COC(=O)N5CCN(CCC7CCN(Cc8cccc9c8n(C)c(=O)n9C8CCC(=O)NC8=O)CC7)CC5)CC6)nc4c3F)c12 (stereo partly drawn) [Compound 85, [(3S,8S)-8-[[4-(3,8-Diazabicyclo[3.2.1]octan-3-yl)-7-(8-ethynyl-7-fluoro-1-naphthyl)-8-fluoro-pyrido[4,3-d]pyrimidin-2-yl]oxymethyl]-1,2,3,5,6,7-hexahydropyrrolizin-3-yl]methyl4-[2-[1-[[1-(2,6-dioxo-3-piperidyl)-3-methyl-2-oxo-benzimidazol-4-yl]methyl]-4-piperidyl]ethyl]piperazine-1-carboxylate]	< 100 nM
C#Cc1c(F)ccc2cccc(-c3ncc4c(N5CC6CCC(C5)N6)nc(OC[C@@]56CCCN5[C@H](COC(=O)N5CC7CCC(C5)C7CN5CCC(c7ccc8c(c7)n(C)c(=O)n8C7CCC(=O)NC7=O)CC5)CC6)nc4c3F)c12 (stereo partly drawn) [Compound 103, [(3S,8S)-8-[[4-(3,8-Diazabicyclo[3.2.1]octan-3-yl)-7-(8-ethynyl-7-fluoro-1-naphthyl)-8-fluoro-pyrido[4,3-d]pyrimidin-2-yl]oxymethyl]-1,2,3,5,6,7-hexahydropyrrolizin-3-yl]methyl8-[[4-[1-(2,6-dioxo-3-piperidyl)-3-methyl-2-oxo-benzimidazol-5-yl]-1-piperidyl]methyl]-3-azabicyclo[3.2.1]octane-3-carboxylate]	< 100 nM
C#Cc1c(F)ccc2cccc(-c3ncc4c(N5CC6CCC(C5)N6)nc(OC[C@@]56CCCN5[C@H](COC(=O)N5CCC7(CC5)CC(CCc5cccc8c5n(C)c(=O)n8C5CCC(=O)NC5=O)C7)CC6)nc4c3F)c12 (stereo partly drawn) [Compound 124, [(3S,8S)-8-[[4-(3,8-Diazabicyclo[3.2.1]octan-3-yl)-7-(8-ethynyl-7-fluoro-1-naphthyl)-8-fluoro-pyrido[4,3-d]pyrimidin-2-yl]oxymethyl]-1,2,3,5,6,7-hexahydropyrrolizin-3-yl]methyl 2-[2-[1-(2,6-dioxo-3-piperidyl)-3-methyl-2-oxo-benzimidazol-4-yl]ethyl]-7-azaspiro[3.5]nonane-7-carboxylate]	< 100 nM
C#Cc1c(F)ccc2cccc(-c3ncc4c(N5CC6CCC(C5)N6)nc(OC[C@@]56CCCN5[C@H](COC(=O)N5CC(COC7CCN(c8ccc9c(c8)n(C)c(=O)n9C8CCC(=O)NC8=O)CC7)C5)CC6)nc4c3F)c12 (stereo partly drawn) [Compound 104, [(3S,8S)-8-[[4-(3,8-Diazabicyclo[3.2.1]octan-3-yl)-7-(8-ethynyl-7-fluoro-1-naphthyl)-8-fluoro-pyrido[4,3-d]pyrimidin-2-yl]oxymethyl]-1,2,3,5,6,7-hexahydropyrrolizin-3-yl]methyl 3-[[1-[1-(2,6-dioxo-3-piperidyl)-3-methyl-2-oxo-benzimidazol-5-yl]-4-piperidyl]oxymethyl]azetidine-1-carboxylate]	< 100 nM
C#Cc1c(F)ccc2cccc(-c3ncc4c(N5CC6CCC(C5)N6)nc(OC[C@@]56CCCN5[C@H](COC(=O)N5CCC(C7CCN(c8cccc9c8n(C)c(=O)n9C8CCC(=O)NC8=O)CC7)CC5)CC6)nc4c3F)c12 (stereo partly drawn) [Compound 127, [(3S,8S)-8-[[4-(3,8-Diazabicyclo[3.2.1]octan-3-yl)-7-(8-ethynyl-7-fluoro-1-naphthyl)-8-fluoro-pyrido[4,3-d]pyrimidin-2-yl]oxymethyl]-1,2,3,5,6,7-hexahydropyrrolizin-3-yl]methyl 4-[1-[1-(2,6-dioxo-3-piperidyl)-3-methyl-2-oxo-benzimidazol-4-yl]-4-piperidyl]piperidine-1-carboxylate]	≥ 300 nM
C#Cc1c(F)ccc2cccc(-c3ncc4c(N5CC6CCC(C5)N6)nc(OC[C@]56CCCN5[C@@H](COC(=O)N5CCC(CN7CCC(c8ccc9c(c8)n(C)c(=O)n9C8CCC(=O)NC8=O)CC7)CC5)CC6)nc4c3F)c12 (some centres unmarked) [Compound 76]	< 100 nM
C#Cc1c(F)ccc2cccc(-c3ncc4c(N5CC6CCC(C5)N6)nc(OC[C@@]56CCCN5[C@H](COC(=O)N5CCC(CCN7CCN(Cc8cccc9c8n(C)c(=O)n9C8CCC(=O)NC8=O)CC7)CC5)CC6)nc4c3F)c12 (stereo partly drawn) [Compound 84, [(3S,8S)-8-[[4-(3,8-Diazabicyclo[3.2.1]octan-3-yl)-7-(8-ethynyl-7-fluoro-1-naphthyl)-8-fluoro-pyrido[4,3-d]pyrimidin-2-yl]oxymethyl]-1,2,3,5,6,7-hexahydropyrrolizin-3-yl]methyl4-[2-[4-[[1-(2,6-dioxo-3-piperidyl)-3-methyl-2-oxo-benzimidazol-4-yl]methyl]piperazin-1-yl]ethyl]piperidine-1-carboxylate]	< 100 nM
C#Cc1c(F)ccc2cccc(-c3ncc4c(N5CC6CCC(C5)N6)nc(OC[C@@]56CCCN5[C@H](COC(=O)N5CCC(CCCCc7ccc8c(c7)n(C)c(=O)n8C7CCC(=O)NC7=O)CC5)CC6)nc4c3F)c12 (some centres unmarked) [Compound 43]	≥ 300 nM
C#Cc1c(F)ccc2cccc(-c3ncc4c(N5CC6CCC(C5)N6)nc(OC[C@@]56CCCN5[C@H](COC(=O)N5CCC(CC7CCN(c8cccc9c8n(C)c(=O)n9C8CCC(=O)NC8=O)CC7)CC5)CC6)nc4c3F)c12 (some centres unmarked) [Compound 48]	≥ 300 nM
C#Cc1c(F)ccc2cccc(-c3ncc4c(N5CC6CCC(C5)N6)nc(OC[C@@]56CCCN5[C@H](COC(=O)N5CCC(Cn7cc(-c8ccc9c(c8)n(C)c(=O)n9C8CCC(=O)NC8=O)nn7)CC5)CC6)nc4c3F)c12 (stereo partly drawn) [Compound 94, [(3S,8S)-8-[[4-(3,8-Diazabicyclo[3.2.1]octan-3-yl)-7-(8-ethynyl-7-fluoro-1-naphthyl)-8-fluoro-pyrido[4,3-d]pyrimidin-2-yl]oxymethyl]-1,2,3,5,6,7-hexahydropyrrolizin-3-yl]methyl 4-[[4-[1-(2,6-dioxo-3-piperidyl)-3-methyl-2-oxo-benzimidazol-5-yl]triazol-1-yl]methyl]piperidine-1-carboxylate]	≥ 300 nM
C#Cc1c(F)ccc2cccc(-c3ncc4c(N5CC6CCC(C5)N6)nc(OC[C@@]56CCCN5[C@H](COC(=O)N5CCC(OCC#CC#Cc7ccc8c(c7)n(C)c(=O)n8C7CCC(=O)NC7=O)CC5)CC6)nc4c3F)c12 (stereo partly drawn) [Compound 92, [(3S,8S)-8-[[4-(3,8-Diazabicyclo[3.2.1]octan-3-yl)-7-(8-ethynyl-7-fluoro-1-naphthyl)-8-fluoro-pyrido[4,3-d]pyrimidin-2-yl]oxymethyl]-1,2,3,5,6,7-hexahydropyrrolizin-3-yl]methyl 4-[5-[1-(2,6-dioxo-3-piperidyl)-3-methyl-2-oxo-benzimidazol-5-yl]penta-2,4-diynoxy]piperidine-1-carboxylate]	< 100 nM
C#Cc1c(F)ccc2cccc(-c3ncc4c(N5CC6CCC(C5)N6)nc(OC[C@@]56CCCN5[C@H](COC(=O)N5CCC(CC7CCN(Cc8ccc9c(c8)n(C)c(=O)n9C8CCC(=O)NC8=O)CC7)CC5)CC6)nc4c3F)c12 (some centres unmarked) [Compound 47]	< 100 nM
